Laboratory results reported in the supplement of paper PMC10627819.
In brackets after ≈: the same amount, converted by molar mass.

Key:
B. subtilis 168 [1] = assay: fitness (endpoint OD595 vs no drug) (fraction); higher = more growth
How it was run: (§1)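 In 384-well plates at 37 °C, cultures began at OD595 0.01 in 30 µl, with 55 µl used for S. pneumoniae. OD595 readings every 30 min for 14 h were corrected by the first reading. Fitness divides the stationary-phase transition optical density by the robust mean of no-drug control wells. The result is capped at 1.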

S. aureus Newman [2] = assay: as above
How it was run: as §1

S. aureus DSM 20231 [3] = assay: as above
How it was run: as §1

S. pneumoniae D39V [4] = assay: as above
How it was run: as §1

B. subtilis 168 [5] = assay: Bliss interaction score (quartile over a dose matrix) (fitness difference); higher = more antagonism (negative = synergy)
How it was run: (§2)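 The Bliss score takes observed fitness and subtracts the expected fitness, calculated as a product of single-drug fitness values. Those single-drug values were inferred from the combination data. Fitness is OD595 at entry into stationary phase divided by the plate's robust no-drug mean, capped at 1, and the score is summarised by quartiles across technical, biological and donor/recipient replicates.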

S. aureus Newman [6] = assay: as above
How it was run: as §2

S. aureus DSM 20231 [7] = assay: as above
How it was run: as §2

S. pneumoniae D39V [8] = assay: as above
How it was run: as §2

S. aureus Newman [9] = test system: S. aureus Newman
S. aureus DSM 20231 [10] = test system: S. aureus DSM 20231
S. pneumoniae D39V [11] = test system: S. pneumoniae D39V
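Wherever Bliss interaction score (quartile over a dose matrix) is given: first quartile when negative (synergy) and third quartile when positive (antagonism).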

Cc1ncc([N+](=O)[O-])n1CCO [Metronidazole] + Cc1cc(NS(=O)(=O)c2ccc(N)cc2)no1 [Sulfamethoxazol]
one replicate
Conditions	fitness
B. subtilis 168 [1], first compound 0.625 µg/mL, partner 0.5 µg/mL	≥ 1
B. subtilis 168 [1], first compound 1.25 µg/mL, partner 0.5 µg/mL	≥ 1
B. subtilis 168 [1], first compound 2.5 µg/mL, partner 0.5 µg/mL	≥ 1
S. aureus Newman [2], first compound 0.625 µg/mL, partner 8 µg/mL	0.864
S. aureus Newman [2], first compound 0.781 µg/mL, partner 1 µg/mL	≥ 1
S. aureus Newman [2], first compound 0.781 µg/mL, partner 2 µg/mL	≥ 1
S. aureus Newman [2], first compound 0.781 µg/mL, partner 4 µg/mL	≥ 1
S. aureus Newman [2], first compound 1.25 µg/mL, partner 8 µg/mL	0.911
S. aureus Newman [2], first compound 1.562 µg/mL, partner 1 µg/mL	≥ 1
S. aureus Newman [2], first compound 1.562 µg/mL, partner 2 µg/mL	≥ 1
S. aureus Newman [2], first compound 1.562 µg/mL, partner 4 µg/mL	≥ 1
S. aureus Newman [2], first compound 2.5 µg/mL, partner 8 µg/mL	0.898
S. aureus Newman [2], first compound 3.124 µg/mL, partner 1 µg/mL	0.992
S. aureus Newman [2], first compound 3.124 µg/mL, partner 2 µg/mL	0.982
S. aureus Newman [2], first compound 3.124 µg/mL, partner 4 µg/mL	≥ 1
S. pneumoniae D39V [4], first compound 1.25 µg/mL, partner 1 µg/mL	0.979
S. pneumoniae D39V [4], first compound 1.25 µg/mL, partner 2 µg/mL	≥ 1
S. pneumoniae D39V [4], first compound 1.25 µg/mL, partner 4 µg/mL	0.916
S. pneumoniae D39V [4], first compound 2.5 µg/mL, partner 1 µg/mL	≥ 1
S. pneumoniae D39V [4], first compound 2.5 µg/mL, partner 2 µg/mL	≥ 1
S. pneumoniae D39V [4], first compound 2.5 µg/mL, partner 4 µg/mL	0.917
S. pneumoniae D39V [4], first compound 5 µg/mL, partner 1 µg/mL	≥ 1
S. pneumoniae D39V [4], first compound 5 µg/mL, partner 2 µg/mL	≥ 1
S. pneumoniae D39V [4], first compound 5 µg/mL, partner 4 µg/mL	0.9

fitness
Conditions	first compound 0.625 µg/mL	first compound 1.073 µg/mL	first compound 1.25 µg/mL	first compound 2.145 µg/mL	first compound 2.5 µg/mL	first compound 4.29 µg/mL
B. subtilis 168 [1], partner 1 µg/mL	0.876	–	0.951	–	0.948	–
B. subtilis 168 [1], partner 2 µg/mL	0.91	–	0.903	–	0.896	–
B. subtilis 168 [1], partner 4 µg/mL	0.962	–	0.992	–	0.96	–
S. aureus DSM 20231 [3], partner 1 µg/mL	0.982	–	≥ 1	–	≥ 1	–
S. aureus DSM 20231 [3], partner 2 µg/mL	0.983	–	0.986	–	0.988	–
S. aureus DSM 20231 [3], partner 4 µg/mL	0.963	–	0.969	–	0.992	–
S. aureus Newman [2], partner 1 µg/mL	≥ 1	–	0.977	–	0.97	–
S. aureus Newman [2], partner 2 µg/mL	0.94	–	0.978	–	0.95	–
S. aureus Newman [2], partner 4 µg/mL	0.979	–	0.997	–	≥ 1	–
S. pneumoniae D39V [4], partner 1 µg/mL	–	0.935	–	0.792	–	0.912
S. pneumoniae D39V [4], partner 2 µg/mL	–	0.952	–	0.93	–	0.95
S. pneumoniae D39V [4], partner 4 µg/mL	–	0.984	–	0.952	–	0.944

Conditions	Bliss interaction score
B. subtilis 168 [5]	0.0475
S. aureus DSM 20231 [7]	0.0776
S. aureus Newman [6]	0.0439
S. pneumoniae D39V [8]	-0.0219

Cc1ncc([N+](=O)[O-])n1CCO [Metronidazole] + Cc1onc(-c2ccccc2)c1C(=O)N[C@@H]1C(=O)N2[C@@H]1SC(C)(C)[C@@H]2C(=O)O [Oxacillin]
fitness
Conditions	first compound 0.625 µg/mL	first compound 1.073 µg/mL	first compound 1.25 µg/mL	first compound 2.145 µg/mL	first compound 2.5 µg/mL	first compound 4.29 µg/mL	first compound 5 µg/mL
B. subtilis 168 [1], partner 0.002 µg/mL	0.972	–	0.962	–	0.942	–	–
B. subtilis 168 [1], partner 0.004 µg/mL	0.957	–	≥ 1	–	0.942	–	–
B. subtilis 168 [1], partner 0.008 µg/mL	0.946	–	0.869	–	0.858	–	–
S. aureus DSM 20231 [3], partner 0.0156 µg/mL	0.937	–	≥ 1	–	0.991	–	–
S. aureus DSM 20231 [3], partner 0.0312 µg/mL	–	–	0.816	–	0.828	–	–
S. aureus DSM 20231 [3], partner 0.0625 µg/mL	0.632	–	0.645	–	–	–	–
S. aureus Newman [2], partner 0.0156 µg/mL	0.772	–	0.785	–	0.768	–	–
S. aureus Newman [2], partner 0.0312 µg/mL	0.737	–	0.786	–	0.702	–	–
S. aureus Newman [2], partner 0.0625 µg/mL	0.658	–	0.551	–	0.601	–	–
S. pneumoniae D39V [4], partner 0.01 µg/mL	–	0.971	0.985	0.891	0.981	0.965	0.97
S. pneumoniae D39V [4], partner 0.02 µg/mL	–	0.964	0.959	0.967	0.995	–	0.948
S. pneumoniae D39V [4], partner 0.04 µg/mL	–	0.845	0.625	0.888	0.648	0.839	0.566

fitness, one replicate
Conditions	first compound 0.625 µg/mL	first compound 0.781 µg/mL	first compound 1.25 µg/mL	first compound 1.562 µg/mL	first compound 2.5 µg/mL	first compound 3.124 µg/mL
B. subtilis 168 [1], partner 0.075 µg/mL	0.548	–	0.664	–	0.507	–
B. subtilis 168 [1], partner 0.15 µg/mL	0.0434	–	0.0679	–	0.0716	–
B. subtilis 168 [1], partner 0.3 µg/mL	0.0488	–	0.0601	–	0.0718	–
S. aureus Newman [2], partner 0.0156 µg/mL	–	0.826	–	0.749	–	0.817
S. aureus Newman [2], partner 0.0312 µg/mL	–	0.737	–	0.737	–	0.721
S. aureus Newman [2], partner 0.0625 µg/mL	–	0.655	–	0.643	–	0.705

Conditions	Bliss interaction score
B. subtilis 168 [5]	0.0534
S. aureus DSM 20231 [7]	0.0451
S. aureus Newman [6]	0.0703
S. pneumoniae D39V [8]	0.144

CC1(C)S[C@@H]2[C@H](NC(=O)Cc3ccccc3)C(=O)N2[C@H]1C(=O)O [Penicillin G]
fitness
Conditions	0.0018 µg/mL	0.0035 µg/mL	0.007 µg/mL	0.014 µg/mL	0.0195 µg/mL	0.039 µg/mL	0.078 µg/mL
S. aureus Newman [2]	–	–	–	–	0.928	0.892	0.886
S. pneumoniae D39V [4]	0.932	0.944	0.817	0.425	–	–	–

Conditions	MIC [µg/mL]
S. aureus DSM 20231 [10]	0.087 (≈ 0.26 µM)
S. aureus Newman [9]	0.087 (≈ 0.26 µM)
S. pneumoniae D39V [11]	0.016 (≈ 0.0478 µM)
